According to US9540373B2, “Substituted spirocycles” (Boehringer Ingelheim International GmbH, priority 2014, dated 2017):
Like-named read-outs stand apart in the source and are kept apart here.

How the values were obtained:
[1] = target: recombinant human DPPI (Cathepsin C) (Homo sapiens (Human), UniProt P53634); test: Inhibition of human DPPI (Cathepsin C); assay type: biochemical
Experimental: Inhibition of Human DPPI (Cathepsin C)
The analysis of the data was performed by calculating the percentage of fluorescence in the presence of test compound in comparison to the fluorescence of the vehicle control after 20 subtracting the background fluorescence using the following formula: (RFU(sample)−RFU(background))*100/(RFU(control)−RFU(background))
Data from these calculations were used to generate IC50 values for inhibition of DPPI, respectively.

[2] = tested on: neutrophil elastase activity in U937 cells; test: Determination of neutrophil elastase activity in U937 cytosolic lysate preparation after incubation with test compound; assay type: cell-based; conditions: Homo sapiens, U-937; U937 cells incubated 48 hours with compound, NE activity in lysate; read-out: Reduction of NE-activity in U937 cells IC50
Experimental: Determination of Neutrophil Elastase Activity in U937 Cytosolic Lysate Preparation after Incubation with Test Compound Materials:
24 well Nunclon cell culture plates (No. 142475) and 96 well plates (No. 267245) were from Nunc.
Dimethylsulfoxid (DMSO) was from Sigma (Prod. No. D8418). Nonidet-P40 (NP40) was from USBiological (Prod. No. N3500)
Substrate, specific for Neutrophil elastase, was from Bachem (MeOSuc-Ala-Ala-Pro-Val-AMC; Prod. No. I-1270).
Human neutrophil elastase was from Calbiochem (Prod. No. 324681)
Tris-buffer (100 mM Tris; 1M NaCl; pH 7.5)
Tris-buffer+HSA 0.1%; Human Serum Albumin from Calbiochem (Cat#. 126658)
Serine-protease buffer (20 mM Tris; 100 mM NaCl; pH 7.5)+0.1% HSA
Serine protease lysis buffer: 20 mM Tris-HCl; 100 mM NaCl pH 7.5; +0.2% Nonidet-P40;
PBS: phosphate buffered saline, without Ca and Mg, from Gibco
U937 from ECACC (Cat. No. 85011440) cultured in suspension at 37° C. and 5% CO2.
Cell density: 0.2-1 Mio. Cells/ml.
Medium: RPMI1640 GlutaMAX (No. 61870) with 10% FCS from Gibco
Cell Seeding and Treatment:
Compounds in 100% DMSO were diluted in Medium (−FCS) with 10% DMSO and further diluted according to the experiment planned.
20 μl of the compound solution was transferred in the respective wells of the 24 well plate and diluted with 2 ml cell suspension/well containing 1×10^5 cells/ml (final concentration of DMSO=0.1%). Compound dilution factor=100
Compounds (up to 7 concentrations) were tested in triplicates with 3 wells for the DMSO 0.1% control, incubated for 48 hours without medium change at 37° C., 5% CO2 and 95% relative humidity.
Cell Harvesting and Cell Lysate:
Transfer the cell suspension in 2 ml 96 well assay block. Separate cells from medium by centrifugation (500×g; 10 min; RT); discard the supernatant. Resuspend in 1 ml PBS; centrifugation (500×g; 10 min; RT); wash cells twice with PBS. Add 80 μl Serine protease lysis buffer (ice cold) to the cell pellet; resuspend the pellet and store on ice for 10 minutes. Remove debris by centrifugation at 1000×g for 10 min at 4° C. Transfer 80-100 μl lysate supernatant in 96 well plate and store immediately at −80° C.
Neutrophil Elastase Activity Assay:
Frozen lysates were thaw at 37° C. for 10 minutes and stored on ice. Protein content was determined with Bradford protein assay. Lysates were diluted to 0.2-0.5 mg/ml protein in serine protease buffer+HSA.
Standard: NE (100 μg/ml stock solution in Tris-buffer; stored at −80° C.) was diluted in Tris-buffer+HSA to 750 ng/ml, and further serially diluted 1:2 for the standard curve. Buffer, blank, standard and lysate samples were transferred into 384 well plate
Blank: 5 μl Tris-buffer+10 μl Serine protease buffer+5 μl Substrate
Standard: 5 μl Tris-buffer+10 μl NE (diff. conc.)+5 μl Substrate
Lysate: 5 μl Tris-buffer+10 μl Lysat+5 μl Substrate
The increase in fluorescence (Ex360 nm/Em 460 nm) is determined after 30 minutes with a Molecular Device Spectramax M5 Fluorescence Reader. The result is interpolated to ng/mg lysate protein using excel formula functions. Percent inhibition in the compound-treated lysate samples is calculated relative to the DMSO-treated control-sample (100−(compound-sample*100)/control-sample)
A test compound will give values between 0% and 100% inhibition of neutrophil elastase. IC50 is calculated using Graphpad Prism; nonlinear fitting (log(inhibitor) vs. response—Variable slope). The IC50 value is interpolated as the concentration of test compound which leads to a neutrophil elastase activity reduction of 50% (relative to the DMSO-treated control).

[3] = Determination of metabolic stability with human liver microsomes; assay type: in vitro ADME; conditions: pH 7.6; pooled human liver microsomes, 1 mg/ml protein, 1 μM compound, 37° C., NADPH; read-out: In vitro stability in human liver microsome incubations t1/2
Experimental: Determination of Metabolic Stability with Human Liver Microsomes
The metabolic degradation of the test compound is assayed at 37° C. with pooled human liver microsomes. The final incubation volume of 100 μl per time point contains TRIS buffer pH 7.6 (0.1 M), magnesium chloride (5 mM), microsomal protein (1 mg/ml) and the test compound at a final concentration of 1 μM. Following a short preincubation period at 37° C., the reactions are initiated by addition of beta-nicotinamide adenine dinucleotide phosphate, reduced form (NADPH, 1 mM) and terminated by transferring an aliquot into acetonitrile after different time points. Additionally, the NADPH-independent degradation is monitored in incubations without NADPH, terminated at the last time point. The [%] remaining test compound after NADPH independent incubation is reflected by the parameter c (control) (metabolic stability). The quenched incubations are pelleted by centrifugation (10′000 g, 5 min.) An aliquot of the supernatant is assayed by LC-MS/MS for the amount of parent compound.
The half-life (t1/2 INVITRO) is determined by the slope of the semilogarithmic plot of the concentration-time profile. The intrinsic clearance (CL_INTRINSIC) is calculated by considering the amount of protein in the incubation: CL_INTRINSIC [μl/min/mg protein]=(ln 2/(half-life [min]*protein content [mg/ml]))*1′000.

[4] = recombinant human DPPI, substrate Gly-Arg-AMC, pH 6.0, read-out: Inhibition of DPPI IC50
[5] = Table 14, compounds examined in X-ray crystallography, read-out: CatC IC50

Chain of recombinant human DPPI (Cathepsin C) (P53634 231-394): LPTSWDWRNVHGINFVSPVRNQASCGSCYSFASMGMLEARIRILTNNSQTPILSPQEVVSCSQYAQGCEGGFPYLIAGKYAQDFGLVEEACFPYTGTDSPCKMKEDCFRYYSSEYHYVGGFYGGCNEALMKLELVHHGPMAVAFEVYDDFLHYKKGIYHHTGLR
Chain of recombinant human DPPI (Cathepsin C) (P53634 25-134): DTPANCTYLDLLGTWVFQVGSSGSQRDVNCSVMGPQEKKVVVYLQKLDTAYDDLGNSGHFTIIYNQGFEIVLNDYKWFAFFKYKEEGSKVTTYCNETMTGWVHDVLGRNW
Chain of recombinant human DPPI (Cathepsin C) (P53634 395-463): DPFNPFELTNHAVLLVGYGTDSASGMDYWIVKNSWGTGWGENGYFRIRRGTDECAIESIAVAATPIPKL

N#C[C@H](Cc1ccc(-c2cc3c(cn2)COC32CCN(C3COC3)CC2)cc1F)NC(=O)[C@H]1N[C@@H]2CC[C@H]1C2 [Example 23, (1S,2S,4R)—N-[(1S)-1-cyano-2-[2-fluoro-4-[1′-(oxetan-3-yl)spiro[3H-furo[3,4-c]pyridine-1,4′-piperidine]-6-yl]phenyl]ethyl]-3-azabicyclo[2.2.1]heptane-2-carboxamide]
IC50 [1, 4]: 5 nM | IC50 [2]: 7.5 nM | half-life at 1 μM [3]: > 130 min

N#C[C@H](Cc1ccc(-c2ccc3c(c2)C2(CCNCC2)OC3)cc1F)NC(=O)[C@H]1N[C@@H]2CC[C@H]1C2 [Example 13]
IC50 [1, 4]: 0.6 nM | IC50 [2]: 16.7 nM | half-life at 1 μM [3]: > 130 min

CN1CCC2(CC1)C(=O)N(C)c1ccc(-c3ccc(C[C@@H](C#N)NC(=O)[C@H]4N[C@@H]5CC[C@H]4C5)c(F)c3)cc12 [Example 5]
IC50 [1, 4]: 0.6 nM | IC50 [2]: 2.3 nM | half-life at 1 μM [3]: > 130 min

CN1CCC2(CCc3ccc(-c4ccc(C[C@@H](C#N)NC(=O)[C@H]5N[C@@H]6CC[C@H]5C6)c(F)c4)cc32)CC1 [Example 15]
IC50 [1, 4]: 0.5 nM | IC50 [2]: 0.2 nM | half-life at 1 μM [3]: > 130 min

CN1CCCC2(C1)C(=O)N(C)c1ccc(-c3ccc(C[C@@H](C#N)NC(=O)[C@H]4N[C@@H]5CC[C@H]4C5)c(F)c3)cc12 (some centres unmarked) [Example 17]
IC50 [1, 4]: 1.6 nM | IC50 [2]: 0.6 nM | half-life at 1 μM [3]: 60 min

CN1CCC2(CC1)OCc1ccc(-c3ccc(C[C@@H](C#N)NC(=O)[C@H]4N[C@@H]5CC[C@H]4C5)c(F)c3)cc12 [Example 14]
IC50 [1, 4]: 1 nM | IC50 [2]: 1.1 nM | half-life at 1 μM [3]: > 130 min

N#C[C@H](Cc1ccc(-c2ccc3c(c2)C2(CCN(C4COC4)CC2)OC3)cc1F)NC(=O)C12CCC(CC1)CN2 [Example 27, N-[(1S)-1-cyano-2-[2-fluoro-4-[1′-(oxetan-3-yl)spiro[1H-isobenzofuran-3,4′-piperidine]-5-yl]phenyl]ethyl]-3-azabicyclo[2.2.2]octane-4-carboxamide]
IC50 [1, 4]: 2.9 nM | IC50 [2]: 0.7 nM | half-life at 1 μM [3]: 120 min

N#C[C@H](Cc1ccc(-c2ccc3c(c2)C2(CNC2)OC3=O)cc1F)NC(=O)[C@H]1N[C@@H]2CC[C@H]1C2 [Example 11]
IC50 [1, 5]: 0.7 nM | IC50 [1, 4]: 0.7 nM | IC50 [2]: 10.7 nM | half-life at 1 μM [3]: > 130 min

N#C[C@H](Cc1ccc(-c2ccc3c(c2)C2(CCNCC2)C(=O)N3)cc1F)NC(=O)[C@H]1N[C@@H]2CC[C@H]1C2 [Example 3]
IC50 [1, 4]: 0.3 nM | IC50 [2]: 503 nM | half-life at 1 μM [3]: > 130 min

CN1CCC2(CC1)OC(=O)c1ccc(-c3ccc(C[C@@H](C#N)NC(=O)[C@H]4N[C@@H]5CC[C@H]4C5)c(F)c3)cc12 [Example 8]
IC50 [1, 4]: 0.7 nM | IC50 [2]: 0.8 nM | half-life at 1 μM [3]: 74 min

CN1CCC2(CC1)C(=O)Nc1ccc(-c3ccc(C[C@@H](C#N)NC(=O)[C@H]4N[C@@H]5CC[C@H]4C5)c(F)c3)cc12 [Example 6]
IC50 [1, 4]: 0.2 nM | IC50 [2]: 22.2 nM | half-life at 1 μM [3]: 110 min

CN1CCC2(CC1)OC(=O)c1cnc(-c3ccc(C[C@@H](C#N)NC(=O)[C@H]4N[C@@H]5CC[C@H]4C5)c(F)c3)cc12 [Example 19]
IC50 [1, 4]: 1 nM | IC50 [2]: 5 nM | half-life at 1 μM [3]: > 130 min

CN1CCC2(C1)OC(=O)c1cnc(-c3ccc(C[C@@H](C#N)NC(=O)[C@H]4N[C@@H]5CC[C@H]4C5)c(F)c3)cc12 (some centres unmarked) [Example 20]
IC50 [1, 4]: 1.6 nM | IC50 [2]: 23.2 nM | half-life at 1 μM [3]: > 130 min

N#C[C@H](Cc1ccc(-c2ccc3c(c2)C2(CCNC2)C(=O)N3)cc1F)NC(=O)[C@H]1N[C@@H]2CC[C@H]1C2 (some centres unmarked) [Example 16]
IC50 [1, 5]: 0.5 nM | IC50 [1, 4]: 0.5 nM | IC50 [2]: 73.8 nM | half-life at 1 μM [3]: > 130 min

N#C[C@H](Cc1ccc(-c2ccc3c(c2)C2(CCNCC2)CC3)cc1F)NC(=O)[C@H]1N[C@@H]2CC[C@H]1C2 [Example 2]
IC50 [1, 4]: 0.6 nM | IC50 [2]: 6.8 nM | half-life at 1 μM [3]: > 130 min

N#C[C@H](Cc1ccc(-c2cc3c(cn2)C(=O)OC32CCN(C3COC3)CC2)cc1F)NC(=O)[C@H]1N[C@@H]2CC[C@H]1C2 [Example 22]
IC50 [1, 4]: 4.8 nM | IC50 [2]: 15.7 nM | half-life at 1 μM [3]: > 130 min

N#C[C@H](Cc1ccc(-c2cc3c(cn2)C(=O)OC32CCNCC2)cc1F)NC(=O)[C@H]1N[C@@H]2CC[C@H]1C2 [Example 18]
IC50 [1, 4]: 1.6 nM | IC50 [2]: 220 nM | half-life at 1 μM [3]: > 130 min

CN1CC2(C1)OC(=O)c1ccc(-c3ccc(C[C@@H](C#N)NC(=O)[C@H]4N[C@@H]5CC[C@H]4C5)c(F)c3)cc12 [Example 12]
IC50 [1, 4]: 0.5 nM | IC50 [2]: 1.2 nM | half-life at 1 μM [3]: 46 min

N#C[C@H](Cc1ccc(-c2ccc3c(c2)C2(CCNCC2)OC3=O)cc1F)NC(=O)[C@H]1N[C@@H]2CC[C@H]1C2 [Example 7]
IC50 [1, 4]: 0.5 nM | IC50 [2]: 34.9 nM | half-life at 1 μM [3]: > 130 min

CN1CCC2(C1)OC(=O)c1ccc(-c3ccc(C[C@@H](C#N)NC(=O)[C@H]4N[C@@H]5CC[C@H]4C5)c(F)c3)cc12 (some centres unmarked) [Example 10]
IC50 [1, 4]: 0.6 nM | IC50 [2]: 1.4 nM | half-life at 1 μM [3]: > 130 min

CN1CCC2(CC1)OC(=O)c1ncc(-c3ccc(C[C@@H](C#N)NC(=O)[C@H]4N[C@@H]5CC[C@H]4C5)c(F)c3)cc12 [Example 21]
IC50 [1, 4]: 1.4 nM | IC50 [2]: 63.7 nM | half-life at 1 μM [3]: > 130 min

CN1C(=O)C2(CCNCC2)c2cc(-c3ccc(C[C@@H](C#N)NC(=O)[C@H]4N[C@@H]5CC[C@H]4C5)c(F)c3)ccc21 [Example 4]
IC50 [1, 4]: 0.4 nM | IC50 [2]: 91 nM | half-life at 1 μM [3]: > 130 min

CN1CCC2(CC1)OCc1cnc(-c3ccc(C[C@@H](C#N)NC(=O)[C@H]4N[C@@H]5CC[C@H]4C5)c(F)c3)cc12 [Example 26, (1S,2S,4R)—N-[(1S)-1-cyano-2-[2-fluoro-4-(1′-methylspiro[3H-furo[3,4-c]pyridine-1,4′-piperidine]-6-yl)phenyl]ethyl]-3-azabicyclo[2.2.1]heptane-2-carboxamide]
IC50 [1, 4]: 2 nM | IC50 [2]: 4.6 nM | half-life at 1 μM [3]: 55 min
